Results on six compounds are retold here after BindingDB's records for doi:10.1002/cbic.201000413 (The University of Edinburgh, 2011).

Where “and” joins values, the source holds several entries; their conditions need not be identical. Equal values may be shown once.

Assay [1] deals with T1, Peptidyl-prolyl cis-trans isomerase A (Homo sapiens, UniProt P62937). Nature of the assay: ESI-MS Assay. An excerpt: Electrospray mass spectrometry assay is a immunophilin-ligand binding assay which allows us to rapidly probe the affinity of potential inhibitors for CypA which rely on the use of soft-ESI conditions to preserve noncovalent interactions between protein and ligand.

Assay [2] has as its target T1, Peptidyl-prolyl cis-trans isomerase A. Put plainly: PPIase Assay. An excerpt: The promising ligand from the results obtained from ESI-MS assay are subjected to PPIase in vitro assay. The PPIase assay assesses the abil9ity of ligands to inhibit the PPIase activity of CypA.
Assay [3] has the same target. Put plainly: Fluorescence Assay. An excerpt: The promising ligand from the results obtained from ESI-MS assay are subjected to fluorescence in vitro assay. The fluorescence assay takes advantage of the presence of a single tryptophan residue (Trp121) located close to the active site of CypA.

T1 sequence (P62937 whole entry): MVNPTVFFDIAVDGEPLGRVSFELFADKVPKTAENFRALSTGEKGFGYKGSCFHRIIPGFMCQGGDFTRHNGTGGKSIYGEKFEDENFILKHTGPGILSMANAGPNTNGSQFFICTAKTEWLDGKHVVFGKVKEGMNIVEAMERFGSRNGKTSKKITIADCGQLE

What is called Kd is the concentration at which binding is half-saturated. A higher Kd goes with lower affinity. As usually defined, the Ki is a dissociation constant, usually derived from enzyme kinetics or from competition with a known ligand. A lower Ki goes with a stronger hold on the target. On to `COC(=O)[C@H](CCCCNC(=O)OCc1ccccc1)C1C(=O)CC2C1=CC(=O)CC2(C)C` (some centres undefined) [Cyclophilin Inhibitor, 3a], for which the dissociation constant (Kd) was determined as 128 µM in assay [1] and 22.8 µM in assay [3]. In assay [2], this compound showed a Ki above 100 µM.

For `COC(=O)[C@H](CCCN=C(N)N[N+](=O)[O-])C1C(=O)CC2C1=CC(=O)CC2(C)C` (some centres undefined) [Cyclophilin Inhibitor, 3c], the equilibrium dissociation constant (Kd) in assay [1] turned out to be 31.9 µM; in assay [3], 29.6 µM. For the same compound, in assay [2], the Ki was above 100 µM.

In assay [1], `COC(=O)[C@H](CCCCNC(C)=O)C1C(=O)CC2C1=CC(=O)CC2(C)C` (some centres undefined) [Cyclophilin Inhibitor, 3d] returned a Kd of 85.1 µM. The same compound registered a Ki in assay [2] above 100 µM.

Take `COC(=O)[C@H](CCCCNS(=O)(=O)c1cccc2c(N(C)C)cccc12)C1C(=O)CC2C1=CC(=O)CC2(C)C` (some centres undefined) [Cyclophilin Inhibitor, 3e]: the Kd in assay [1] was determined as 113 µM; in assay [3] it was 21.9 µM. The inhibitory constant (Ki) in assay [2] was 207 µM.

Consider `COC(=O)[C@H](CCCCNS(=O)(=O)c1cccc2c(N(C)C)cccc12)C1C(=O)C[C@@H]2C1=CC(=O)CC2(C)C` (some centres undefined) [Cyclophilin Inhibitor, 3f], for which, in assay [1], the Kd worked out at 133 µM.

Regarding `COC(=O)[C@H](CCCCN)C1C(=O)CC2C1=CC(=O)CC2(C)C` (some centres undefined) [Cyclophilin Inhibitor, 15], the Kd was 72.6 µM in assay [1]; 15.9 µM and > 50 µM in assay [3].
